Assay results published in publication PMC8073907, “Peptide targeting of lysophosphatidylinositol-sensing GPR55 for osteoclastogenesis tuning” (Cell Communication and Signaling : CCS, 2021).

B1: RANKL: Receptor-activator of nuclear factor kappa-β ligand, Peprotech (protein, UniProt O14788 140-317, looked up)
Tumor necrosis factor ligand …: IRAEKAMVDGSWLDLAKRSKLEAQPFAHLTINATDIPSGSHKVSLSSWYHDRGWAKISNMTFSNGKLIVNQDGFYYLYANICFRHHETSGDLATEYLQLMVYVTKTSIKIPSSHTLMKGGSTKYWSGNSEFHFYSINVGGFFKLRSGEEISIEVSNPSLLDPDQDATYFGAFKVRDID

Tests used:
RAW264.7 cells = experiment: RANKL-induced transcription of osteoclastogenesis markers in RAW264.7 cells (real-time PCR); assay type: cell-based, murine; details: 72 h; for effect on RANKL-induced Mmp-9 mRNA: 0.5 µM CBD
Protocol: (§1) Total RNA was extracted using RNeasy isolation kits, cDNAs were obtained using QuantiTect Reverse Transcription kits, and real-time PCRs were performed with QuantiTect SYBR Green PCR kits (all from Qiagen, Hilden, Germany), according to the manufacturer instructions. The primers used for the real-time PCRs and their annealing temperatures are listed in the Additional file 1: Table S1. Human hypoxanthine phosphoribosyltransferase 1 (HPRT1) or murine β2-microglobulin were followed as housekeeping genes. The real-time PCR programme consisted of an initial 15 min at 95 °C, and then 45 cycles as follows: 94 °C for 15 s, annealing temperature of each primer for 30 s, and 72 °C for 30 s. The real-time PCR machine used was a LightCycler 480 Instrument II (Roche, Indianapolis, IN, USA).
For transient interference of Gpr55, RAW264.7 cells were plated at 6 × 10^5 cells/well in six-well plates in growth medium without antibiotics. Twenty-four hours later, the cells were transfected with 250 pmol/well non-targeting small-interfering (si)RNAs (si-NT; siGENOME siRNA Pool #2; D-001206-14; Dharmacon, Chicago, IL, USA) or Gpr55-specific siRNAs (si-GPR55; siGENOME mouse GPR55 SMART pool; M-043590-01; Dharmacon) using Lipofectamine LTX and Plus Reagent, according to the manufacturer instructions. Twenty-four hours later, the cells were plated for the different assays or for RNA extraction. The efficiency of interference was monitored by real-time PCR after 72 h of interference, using the primers listed in the Additional file 1: Table S1. β2-microglobulin was followed as a housekeeping gene.
(§2) For the osteoclastogenesis in-vitro assay, RAW264.7 cells were plated in differentiation medium (α-MEM with 10% heat-inactivated FBS, 2 mM L-glutamine, 100 U/mL penicillin, and 100 ug/mL streptomycin) at a density of 5 × 10^3 cells/well in 24-well plates on coverslips for morphological analysis, or at 2 × 10^4 cells/well in six-well plates for RNA extraction. Twenty-four hours later and every 48 h, the medium was replaced and the cells were treated with 15–30 ng/mL RANKL with DMSO and/or PBS as carriers, or with GPR55 antagonists/ agonists (0.5 µM ML-191, 30 µM O1918, 0.5 µM CBD, 0.5 μM CID16020046 1 µM soybean LPI, 1 μM ML-184), or with the peptides (150 nM peptide-P1; or the irrelevant peptide, Irr_P). Twenty-four hours after the last addition, the cells were fixed with 4% paraformaldehyde for morphological analyses or harvested for RNA extraction (see above).

endogenous GPR55 (HeLa) = experiment: LPI-induced ERK/p38 phosphorylation in shCTRL-HeLa clones (Western blot); assay type: cell-based, human; details: for inhibition of LPI stimulation of both ERK2 and p38 phosphorylation at 5 min / inhibition of LPI-induced stimulation of ERK1/2: 30 µM ML-191, 10 µM CBD or 10 µM O1918
Protocol: For stable interference of GPR55, HeLa cells were plated at 1.5 × 10^5 cells/well in six-well plates in growth medium without antibiotics, and 24 h later, the cells were transfected with 1.7 µg/well OmicsLink short hairpin (sh)RNA expression clone CSHCTR001-CU6 (shCTRL) or clone HSH022476-3-CU6 (shGPR55) from GeneCopoeia (Rockville, MD, USA), using Lipofectamine 2000, according the manufacturer instructions. Forty-eight hours after transfection, HeLa clones stably expressing shRNAs were selected in growth medium containing 0.3 µg/mL puromycin. The efficiency of interference was monitored by real-time PCR using the primers listed in the Additional file 1: Table S1. HPRT1 was followed as a housekeeping gene.
(§3) Twenty-four hours after transfection (HEK293T, HeLa cells or clones) or 72 h after interference (RAW264.7 cells), the cells were washed twice with HBSS^++, serum deprived (HEK293T cells for 4 h in DMEM; HeLa cells and clones for 2 h in MEM plus 2 mM glutamine and 25 mM HEPES; RAW264.7 cells for 2 h in DMEM), washed once again with HBSS^++, incubated in stimulation buffer (HBSS^++ with 10 mM HEPES, 0.4% faf-BSA for HEK293T cells; HBSS^++ with 25 mM HEPES and 0.01% faf-BSA for HeLa cells, clones, and RAW264.7 cells) in the absence or presence of stimuli, at 37 °C for the indicated times. Incubations were terminated by washing the cells twice with cold HBSS^++, and the analyses were performed as reported below.
Cell lysates were obtained by scraping the cells into phospho-lysis buffer: 50 mM Tris–HCl, pH 7.5, 100 mM NaCl, 5 mM EDTA, 1% Triton X-100, 50 mM NaF, 40 mM β-glycerophosphate, 200 µM sodium orthovanadate, plus protease and phosphatase inhibitors (Roche). Following gentle homogenisation by 20 passages through a 26-gauge needle, the lysates were centrifuged at 10,000×g for 5 min at 4 °C, and the supernatants were collected.
Protein lysates were subjected to SDS-PAGE, and after electrophoresis, the proteins were transferred to a nitrocellulose membrane (PerkinElmer Life Science, Boston, MA, USA). For immunoblotting, the membranes were blocked with 5% non-fat milk in TBS (10 mM Tris–HCl, pH 7.4, 10 mM NaCl) plus 0.1% Tween-20 (T-TBS) for 30 min at room temperature, and incubated with primary antibodies in T-TBS plus 3% BSA for 2 h at room temperature, or overnight at 4 °C. The membranes were washed twice in T-TBS for 7 min, and then incubated with secondary antibodies conjugated to horseradish peroxidase (1:5,000) (Calbiochem, San Diego, CA, USA) in T-TBS with 5% non-fat milk for 30 min at room temperature. The membranes were then washed twice with T-TBS and once with TBS for 5 min, and the signals were detected by ECL (Amersham Pharmacia, Piscataway, NJ, USA). The rabbit anti-phospho AKT (Ser473), anti-phospho p38 (Thr180/Tyr182), anti-phospho p42/44 (Thr202/Tyr204), anti-p38 (all at dilution 1:1000) were from Cell Signaling Technology (Danvers, MA, USA). The rabbit anti-AKT (B-1), and anti-p42/44 (ERK1; K-23) were from Santa Cruz Biotechnology.

[1] = test system: Gpr55 mRNA in RAW264.7 cells; experiment: Modulation of Gpr55 mRNA levels by receptor ligands in RANKL-treated RAW264.7 cells; assay type: cell-based, murine; details: 72 h; for Gpr55 mRNA levels (fold non-differentiated): alone or + 1 μM soybean LPI, 0.5 μM ML-191, 0.5 μM CBD or 30 μM O1918, means ± SEM of at least three independent experiments
Protocol: as §1, §2

[2] = test system: HA-GPR55 in HEK293T cells; experiment: LPI-induced ERK1/2 activation in GPR55-transfected HEK293T cells; assay type: cell-based, human; details: soybean or synthetic LPI, 100 nM to 10 µM, 3–30 min; different transfection methods
Excerpt: The construct of haemagglutinin (HA)-tagged human GPR55 in pcDNA3 (HA-GPR55) was a gift from Prof. K. Mackie, Indiana University, Bloomington, IN, USA [39], while the construct ss-3 × HA-GPR55 in pcDNA3.1 (ssGPR55) with a triple HA tag at the N-terminus and an optimised signal sequence (ss, derived from amino acids 1–33 of the human growth hormone: […]) for efficient surface expression was from Prof. A. Irving, Dundee University, UK [40]. For both constructs, mutations were introduced by site-directed mutagenesis using QuickChange kits (Stratagene, La Jolla, CA, USA), according to the manufacturer instructions. The primers for the K80A mutation were 5′-[…]-3′ and 5′-[…]-3′ (Tm, 70.6 °C), and for Q87A were 5′-[…]-3′ and 5′-[…]-3′ (Tm, 73.1 °C).
For GPR55 overexpression, HEK293T cells were plated in their growth medium without antibiotics at 2.6 × 10^5 cells/well in 12-well plates, and 24 h later, the cells were transfected with 1 µg cDNA/well using Lipofectamine 2000, according to the manufacturer instructions. The pcDNA3 empty vector or that coding for human HA-GPR55 wild-type or its mutants HA-GPR55-K80A and HA-GPR55-Q87A were used.
as §3, with “Incubations were terminated by washing the cells twice with cold HBSS^++, and the analyses were performed as reported below.” left out
Protein lysates were subjected to SDS-PAGE, and after electrophoresis, the proteins were transferred to a nitrocellulose membrane (PerkinElmer Life Science, Boston, MA, USA). […] The membranes were then washed twice with T-TBS and once with TBS for 5 min, and the signals were detected by ECL (Amersham Pharmacia, Piscataway, NJ, USA). […]

[3] = test system: osteoclasts derived from RAW264.7 cells; experiment: Osteoclast functional assay (bone resorption on bovine cortical bone slices); assay type: cell-based, murine; details: 15 ng/mL RANKL, 7 days; at least three independent experiments
Protocol: RAW264.7 cells were plated in differentiation medium at a density of 1250 cells/100 µL on 0.2-mm-thick bovine cortical bone slices (BoneSlices.com, Jelling, Denmark) in 96-well plates. Six hours later, 100 µL differentiation medium with RANKL (15 ng/mL, final concentration) was added, in the presence of a carrier or in combination with the GPR55 modulators. The media with the different compounds were replaced every 48 h, for a total of 7 days. At the end of this period, the cells were detached with a 10% bleach solution, and the resorption excavations were visualised by using Toluidine Blue staining (Sigma-Aldrich). Images of the resorption areas were obtained under the microscope (SW380T; Swift Optical Instruments, Inc., TX, USA) using the 10 × objective, and acquired with a digital camera (Swiftcam SC1003; Swift Optical Instruments, Inc.). The total eroded surface underwent blinded quantification using ImageJ (NIH), and was subdivided into pit and trench surfaces. Pits were characterised as round excavations with well-defined edges where the ratio between length and width was < 2.0. Trenches were defined as elongated excavations with well-defined edges whose length was at least twice the wide, and with clear signs of continued resorption. The prevalence of trenches was calculated as a proportion (%) of the trench surface relative to the total eroded surface.

[4] = 15–30 ng/mL RANKL, 0.5 µM ML-191, 0.5 µM CBD, 30 µM O1918, four independent experiments
[5] = 10 µM soybean LPI, 10 min, 10 µM CBD or 30 µM ML-191, relative to CBD or ML-191 basal level
[6] = 30 ng/mL RANKL, mean ± range of two independent experiments

| Molecule | effect on RANKL-induced Mmp-9 mRNA (RAW264.7 cells; 15–30 ng/mL RANKL, 30 µM O1918) | effect on RANKL-induced Ctr mRNA (RAW264.7 cells; [4]) | reduction of RANKL-induced Nfatc1 mRNA (RAW264.7 cells; [4]) | reduction of RANKL-induced Trap mRNA (RAW264.7 cells; [4]) | inhibition of LPI stimulation of both ERK2 and p38 phosphorylation at 5 min (endogenous GPR55 (HeLa); 10 µM soybean LPI) | inhibition of LPI-induced stimulation of ERK1/2 (endogenous GPR55 (HeLa); 10 µM soybean LPI) | Gpr55 mRNA levels (fold non-differentiated) ([1]; 30 ng/mL RANKL) | other results |
| --- | --- | --- | --- | --- | --- | --- | --- | --- |
| C=C(C)[C@@H]1CCC(C)=C[C@H]1c1c(O)cc(CCCCC)cc1O [CBD, Cannabidiol] | not affected | not affected | 40% | 50% | inhibited LPI stimulation of both ERK2 and p38 phosphorylation at 5 min | strongly inhibited | 27.7 ± 0.5 fold non-differentiated | reduction of RANKL-induced Cathepsin-k mRNA (RAW264.7 cells; [4]): 44%; ERK2 phosphorylation upon LPI stimulation in presence of antagonist (endogenous GPR55 (HeLa); [5]): 3.3 -fold the antagonist basal lev; p38 phosphorylation upon LPI stimulation in presence of antagonist (endogenous GPR55 (HeLa); [5]): 1.5 -fold the antagonist basal lev; further enhancement of RANKL-stimulated Gpr55 mRNA levels ([1]; 0.5 μM ML-191, 0.5 μM CBD, 1 μM soybean LPI, versus RANKL alone): 0.7 -fold |
| Cc1cccc(N2CCN(C(=O)c3cc(S(=O)(=O)N(C)C)ccc3N3CCCC3)CC2)c1C [ML-184] | – | – | – | – | – | – | – | RANKL-induced transcription of Ctr, si-NT versus si-GPR55 cells (RAW264.7 cells; RANKL 15 ng/mL, 1 µM soybean LPI or 1 µM ML-184): similarly increased RANKL-induced transcription of Ctr only in precursor cells treated with non-targeting siRNAs, and not in those silenced for GPR55 |
| C=C(C)[C@@H]1CCC(C)=C[C@H]1c1c(OC)cc(C)cc1OC [O1918] | not affected | not affected | 40% | 40% | inhibited LPI stimulation of both ERK2 and p38 phosphorylation at 5 min | abolished | 15.8 ± 3.1 fold non-differentiated | effect on RANKL-induced Cathepsin-k mRNA (RAW264.7 cells; 15–30 ng/mL RANKL, 30 µM O1918): not affected; basal ERK2 activation level (without LPI) (endogenous GPR55 (HeLa); 30 µM ML-191 or 10 µM O1918): significantly increased basal activation levels; effect on RANKL-stimulated Gpr55 mRNA levels ([1]; 30 μM O1918): did not show any effects |
| L-α-lysophosphatidylinositol sodium salt from soybean [soybean LPI] | – | – | – | – | – | – | 24.5 ± 2.1 fold non-differentiated | ERK1/2 activation in GPR55-transfected compared to empty-vector-transfected cells [2]: inconsistent ERK1/2 activation |
| B1 | – | – | – | – | – | – | 16.1 ± 1.6 fold non-differentiated | trench surface relative to total eroded surface [3]: 42 ± 8 % of total eroded surface; Cathepsin-k mRNA increase versus undifferentiated cells (RAW264.7 cells; [6]): 468.5 (±24.3) -fold; Mmp-9 mRNA increase versus undifferentiated cells (RAW264.7 cells; [6]): 673.3 (±4.7) -fold; Nfatc1 mRNA increase versus undifferentiated cells (RAW264.7 cells; [6]): 11.9 (±2.2) -fold; Trap mRNA increase versus undifferentiated cells (RAW264.7 cells; [6]): 188.8 (±57.6) -fold; Gpr55 mRNA increase ([1]; 30 ng/mL RANKL, three independent experiments): 14 -fold |
